# Laboratory results as given in PubChem BioAssay AID1919002 (Molecular Pharmacology Branch, DTP, NCI, 2023).
# pIC50: −log10 of the molar value.
# Test system: 743489-274-T-PDC complex spheroid growth
# Test: Anticancer human tumor 743489-274-T-PDC patient-derived renal cell carcinoma cell line growth inhibition [AhR]
# Conditions: for pIC50: curve of first compound; for viability, T/C: stronger effect = lower value
# Text: Multicellular complex tumor spheroid response to aryl hydrocarbon receptor antagonists in combination with a variety of drugs and investigational agents in selected tumor cell lines
# The current study was undertaken to assess response to aryl hydrocarbon receptor antagonists in combination with standard-of-care drugs and investigational agents in solid tumor complex spheroid models. Complex spheroids include a stromal component modeled by human endothelial cells (HUVEC) and fibroblasts modeled by human mesenchymal stem cells (MSCs). The concentration ranges selected for each drug and investigational agent were based upon clinically achievable concentrations if the clinical Cmax of the agent was known.
# Compounds. The drugs and investigational agents: BAY 2416964 (NSC825713), GNF351 (NSC835774), CH-223191 (NSC835775), CPI-455 (NSC825282), aza-TdCyd (NSC777586), decitabine (NSC127716), belinostat (NSC758774), entinostat (NSC756642), pevonedistat (NSC761192), tazemetostat (NSC777109), talazoparib (NSC765396), olaparib (NSC753686), selinexor (NSC780203), nedisertib (M3814, NSC802822), bortezomib (NSC756655), venetoclax (NSC766270), doxorubicin (NSC123127), elimusertib (BAY189344, NSC800525), ceralasertib (AZD6738, NSC777638), TAK-243 (NSC785004), alisertib (NSC759677), etoposide (NSC141540), topotecan (NSC609699), eribulin (NSC707389), gemcitabine (NSC613327), carboplatin (NSC241240), cisplatin (NSC119875), and SN-38 (NSC673596) were obtained from the National Cancer Institute (NCI) Developmental Therapeutics Program Chemical Repository (32). The FDA-approved anticancer drug set is available from the Developmental Therapeutics Program at https://dtp.cancer.gov/organization/dscb/obtaining/available plates.htm. […] The stock solutions were prepared in dimethyl sulfoxide (DMSO, Sigma-Aldrich, St. Louis, MO, cat. D2650), except for the platinum compounds which were prepared in saline (Quality Biological, Gaithersburg, MD, cat. 114-055-101), at 800-fold the tested concentration and stored at -70 degrees C prior to their use. All drugs and investigational agents were tested over a range starting from a high concentration at or near the clinical Cmax and decreasing in half-log increments. If the clinical Cmax for an agent had not been determined, the highest concentration tested was 10 microM (Table 1).
# Cell Culture. All cells were maintained in an incubator at 37 degrees C and 5% CO2 with 95% humidity. The PDC lines were cultured according to standard operating procedures established by the NCI PDMR (https://pdmr.cancer.gov). Briefly, all PDCs were thawed and cultured in Matrigel-coated flasks prepared with a working solution of 1X Ham's F-12 nutrient mix, without supplementation (Invitrogen, Waltham, MA, cat. 11765054), 100 U/mL penicillin-streptomycin (Invitrogen, cat. 15140122), and 2.5% Matrigel (Corning Inc., Corning, NY, cat. 354248) for the first three passages. All PDCs were cultured in complete DMEM/F-12 media containing advanced DMEM/F-12 (Invitrogen, cat. 12634028), 4.9% defined fetal bovine serum, heat inactivated (HyClone Laboratories Inc., Logan, UT, cat. SH30070.03HI), 389 ng/mL hydrocortisone (Sigma-Aldrich, cat. H4001), 9.7 ng/mL human EGF recombinant protein (Invitrogen, cat. PHG0313), 23.4 microg/mL adenine (Sigma-Aldrich, cat. A2786), 97.3 U/mL penicillin-streptomycin (Invitrogen, cat. 15140122), 1.9 mM L-glutamine (Invitrogen, cat. 25030081), and 9.7 microM Y-27632 dihydrochloride (Tocris Bioscience, Bristol, United Kingdom, cat. 1254). The PDCs were cultured in complete DMEM/F12 media without 10 microM Y-27632 dihydrochloride for at least two passages prior to the screen. The established cell lines NCI-H1341 and […] were cultured in DMEM/F-12, HEPES (Invitrogen, cat. 11330032), 5% defined fetal bovine serum (HyClone Laboratories Inc., cat. SH30070.03), ITS premix universal culture supplement [insulin (5 microg/mL), transferrin (5 microg/mL), and selenious acid (5 ng/mL)] […]
# 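Note: spheroids exposed to agents for 7 days before readout.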
# 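Throughout, for viability, T/C: 100% = DMSO vehicle control wells.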
smiles,measurement,setting,value
CCc1c2c(nc3ccc(O)cc13)-c1cc3c(c(=O)n1C2)COC(=O)[C@]3(O)CC + CC(CO)NC(=O)c1cc(-c2ccc(Cl)cc2)nn(-c2cnn(C)c2)c1=O,pIC50,second compound 0.1 µM,< 6.52
same,pIC50,second compound 0.316 µM,< 6.52
same,pIC50,second compound 1 µM,< 6.52
same,pIC50,second compound 3.16 µM,< 6.52
same,pIC50,second compound 10 µM,< 6.52
same,"viability, T/C","second compound 0.1 µM, first compound 0.000949 µM",107%
same,"viability, T/C","second compound 0.1 µM, first compound 0.003 µM",105%
same,"viability, T/C","second compound 0.1 µM, first compound 0.00949 µM",87%
same,"viability, T/C","second compound 0.1 µM, first compound 0.03 µM",88.1%
same,"viability, T/C","second compound 0.1 µM, first compound 0.0949 µM",70.5%
same,"viability, T/C","second compound 0.1 µM, first compound 0.3 µM",64.5%
same,"viability, T/C","second compound 0.316 µM, first compound 0.000949 µM",87.7%
same,"viability, T/C","second compound 0.316 µM, first compound 0.003 µM",94%
same,"viability, T/C","second compound 0.316 µM, first compound 0.00949 µM",103%
same,"viability, T/C","second compound 0.316 µM, first compound 0.03 µM",78.7%
same,"viability, T/C","second compound 0.316 µM, first compound 0.0949 µM",71.5%
same,"viability, T/C","second compound 0.316 µM, first compound 0.3 µM",55.8%
same,"viability, T/C","second compound 1 µM, first compound 0.000949 µM",98.4%
same,"viability, T/C","second compound 1 µM, first compound 0.003 µM",88.7%
same,"viability, T/C","second compound 1 µM, first compound 0.00949 µM",91.6%
same,"viability, T/C","second compound 1 µM, first compound 0.03 µM",88.7%
same,"viability, T/C","second compound 1 µM, first compound 0.0949 µM",73.1%
same,"viability, T/C","second compound 1 µM, first compound 0.3 µM",68.4%
same,"viability, T/C","second compound 3.16 µM, first compound 0.000949 µM",94.2%
same,"viability, T/C","second compound 3.16 µM, first compound 0.003 µM",100%
same,"viability, T/C","second compound 3.16 µM, first compound 0.00949 µM",97.9%
same,"viability, T/C","second compound 3.16 µM, first compound 0.03 µM",84.3%
same,"viability, T/C","second compound 3.16 µM, first compound 0.0949 µM",76.8%
same,"viability, T/C","second compound 3.16 µM, first compound 0.3 µM",59.3%
same,"viability, T/C","second compound 10 µM, first compound 0.000949 µM",87.7%
same,"viability, T/C","second compound 10 µM, first compound 0.003 µM",93.1%
same,"viability, T/C","second compound 10 µM, first compound 0.00949 µM",82.7%
same,"viability, T/C","second compound 10 µM, first compound 0.03 µM",97.7%
same,"viability, T/C","second compound 10 µM, first compound 0.0949 µM",79.7%
same,"viability, T/C","second compound 10 µM, first compound 0.3 µM",65.2%
O=C(c1cc(Cc2n[nH]c(=O)c3ccccc23)ccc1F)N1CCN(C(=O)C2CC2)CC1 + CC(CO)NC(=O)c1cc(-c2ccc(Cl)cc2)nn(-c2cnn(C)c2)c1=O,pIC50,second compound 0.1 µM,< 5.00
same,pIC50,second compound 0.316 µM,< 5.00
same,pIC50,second compound 1 µM,< 5.00
same,pIC50,second compound 3.16 µM,< 5.00
same,pIC50,second compound 10 µM,< 5.00
same,"viability, T/C","second compound 0.1 µM, first compound 0.0316 µM",106%
same,"viability, T/C","second compound 0.1 µM, first compound 0.1 µM",100%
same,"viability, T/C","second compound 0.1 µM, first compound 0.316 µM",98.3%
same,"viability, T/C","second compound 0.1 µM, first compound 1 µM",103%
same,"viability, T/C","second compound 0.1 µM, first compound 3.16 µM",95.3%
same,"viability, T/C","second compound 0.1 µM, first compound 10 µM",101%
same,"viability, T/C","second compound 0.316 µM, first compound 0.0316 µM",86.3%
same,"viability, T/C","second compound 0.316 µM, first compound 0.1 µM",95.2%
same,"viability, T/C","second compound 0.316 µM, first compound 0.316 µM",91.8%
same,"viability, T/C","second compound 0.316 µM, first compound 1 µM",91.9%
same,"viability, T/C","second compound 0.316 µM, first compound 3.16 µM",91%
same,"viability, T/C","second compound 0.316 µM, first compound 10 µM",96.1%
same,"viability, T/C","second compound 1 µM, first compound 0.0316 µM",93.4%
same,"viability, T/C","second compound 1 µM, first compound 0.1 µM",96.3%
same,"viability, T/C","second compound 1 µM, first compound 0.316 µM",100%
same,"viability, T/C","second compound 1 µM, first compound 1 µM",93.1%
same,"viability, T/C","second compound 1 µM, first compound 3.16 µM",94.8%
same,"viability, T/C","second compound 1 µM, first compound 10 µM",97%
same,"viability, T/C","second compound 3.16 µM, first compound 0.0316 µM",93.6%
same,"viability, T/C","second compound 3.16 µM, first compound 0.1 µM",92.5%
same,"viability, T/C","second compound 3.16 µM, first compound 0.316 µM",99.4%
same,"viability, T/C","second compound 3.16 µM, first compound 1 µM",87.5%
same,"viability, T/C","second compound 3.16 µM, first compound 3.16 µM",96.4%
same,"viability, T/C","second compound 3.16 µM, first compound 10 µM",92.9%
same,"viability, T/C","second compound 10 µM, first compound 0.0316 µM",103%
same,"viability, T/C","second compound 10 µM, first compound 0.1 µM",109%
same,"viability, T/C","second compound 10 µM, first compound 0.316 µM",97.9%
same,"viability, T/C","second compound 10 µM, first compound 1 µM",96.7%
same,"viability, T/C","second compound 10 µM, first compound 3.16 µM",93.7%
same,"viability, T/C","second compound 10 µM, first compound 10 µM",105%
